Reference: paper PMC11007943 (BMC Chemistry, 2024)
Several values for one entry are separate records, joined by “and”; a condition that tells them apart may be missing. Identical values can stand only once. Entries after “also recorded” stand apart in the source; their conditions may differ. Like-named read-outs stand apart in the source and are kept apart here.

Key:
[1] = target: T1, BChE (Homo sapiens, UniProt P06276); assay: BChE inhibition, modified Ellman's method; format: biochemical
Protocol: Cholinesterase inhibitory activities of all derivatives were assessed using the modified Ellman’s method. Briefly, 20 µL AChE 0.18 units/mL, or 20 µL BChE 0.162 units/mL, and 20 µL DTNB (301 μM) were added to 200 μL sodium phosphate buffer (0.1 mol/L, pH = 7.4) in separate wells of a 96-well microplate and gently mixed. […]. The absorbance of each well was measured at 415 nm using a microplate reader. IC50 and inhibition values were calculated with the software curve expert as the mean of three independent experiments and expressed as mean ± SEM [25, 26].

[2] = target: T2, AChE (Homo sapiens, UniProt P22303); assay: biochemical; format: biochemical; conditions: for inhibition at 50 µM: mean ± S.E
T2 sequence (P22303 32-614): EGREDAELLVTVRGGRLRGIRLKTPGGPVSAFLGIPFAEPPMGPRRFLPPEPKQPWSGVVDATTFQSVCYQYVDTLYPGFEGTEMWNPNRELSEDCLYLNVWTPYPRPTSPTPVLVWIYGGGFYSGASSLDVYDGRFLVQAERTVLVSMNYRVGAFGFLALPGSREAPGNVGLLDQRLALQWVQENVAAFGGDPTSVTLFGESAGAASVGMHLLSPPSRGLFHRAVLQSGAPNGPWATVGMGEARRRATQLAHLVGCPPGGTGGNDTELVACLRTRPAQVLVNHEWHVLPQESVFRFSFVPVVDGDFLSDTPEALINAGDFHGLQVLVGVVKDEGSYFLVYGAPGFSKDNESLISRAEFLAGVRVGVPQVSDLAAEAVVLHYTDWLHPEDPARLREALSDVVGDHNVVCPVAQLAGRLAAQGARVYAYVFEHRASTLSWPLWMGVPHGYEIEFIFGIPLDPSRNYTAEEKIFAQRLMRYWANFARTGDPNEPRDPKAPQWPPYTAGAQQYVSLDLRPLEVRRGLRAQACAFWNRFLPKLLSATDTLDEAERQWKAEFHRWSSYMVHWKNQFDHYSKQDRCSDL

[3] = target: T2, AChE; conditions: read-out: IC50 against AChE; cited from earlier work
[4] = target: T1, BChE; conditions: read-out: IC50 against BChE; cited from earlier work
[5] = target: T1, BChE; assay: Enzyme kinetic study against BChE (Lineweaver–Burk and secondary plots); format: biochemical
Excerpt: […]. As the concentration of inhibitor 4k increased, the Michaelis–Menten constant (Km) increased, and the maximum reaction rate (Vmax) remained unaffected.
The Ki value provides important information about the strength of the interaction between the inhibitor and the enzyme (Fig. 4).
[…]. A Lineweaver–Burk plot was generated to determine the inhibition type and calculate the Michaelis–Menten constant (Km). Secondary plots were constructed to determine the experimental inhibitor constant (Ki).

[6] = cited from earlier work
[7] = mean ± S.E, read-out: BChE (IC50)
[8] = single graphs behind the mean BChE IC50 of Table 2, read-out: IC50 (individual IC50 graphs, Table S1)

T1 sequence (P06276 29-602): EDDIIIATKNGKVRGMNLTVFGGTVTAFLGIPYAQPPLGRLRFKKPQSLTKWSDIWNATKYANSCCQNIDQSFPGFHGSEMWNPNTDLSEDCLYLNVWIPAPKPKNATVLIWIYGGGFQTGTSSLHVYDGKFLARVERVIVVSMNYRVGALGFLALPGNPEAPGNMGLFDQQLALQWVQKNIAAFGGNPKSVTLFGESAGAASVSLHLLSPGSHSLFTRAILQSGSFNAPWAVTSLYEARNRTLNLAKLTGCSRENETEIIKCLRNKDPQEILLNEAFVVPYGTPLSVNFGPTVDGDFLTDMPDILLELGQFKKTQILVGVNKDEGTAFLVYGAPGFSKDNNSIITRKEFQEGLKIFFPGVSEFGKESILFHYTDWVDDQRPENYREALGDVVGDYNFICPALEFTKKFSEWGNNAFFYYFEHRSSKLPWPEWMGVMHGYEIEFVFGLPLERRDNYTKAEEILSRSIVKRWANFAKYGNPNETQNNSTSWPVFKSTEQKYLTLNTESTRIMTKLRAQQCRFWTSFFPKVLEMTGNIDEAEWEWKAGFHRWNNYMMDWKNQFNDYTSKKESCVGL

Row | Compound | inhibition at 50 µM ([1]; mean ± S.E) | IC50 [1, 7] | IC50 [1, 8] | inhibition at 50 µM [2] | further results
1 | COc1cc(C2C(C#N)=C(N)OC3=C2C(=O)CCC3)ccc1OCc1cccc(F)c1 (stereo not drawn) [Compound 4l, 2-Amino-4-{4-[(3-fluorobenzyl)oxy]-3-methoxyphenyl}-5-oxo-5,6,7,8-tetrahydro-4H-chromene-3-carbonitrile] | 76.1 ± 0.88% | 2.63 ± 0.19 µM | 2.77 µM and 2.49 µM | 33.6 ± 3.29% | 
2 | N#CC1=C(N)OC2=C(C(=O)CCC2)C1c1ccc(OCc2ccc(Cl)cc2)cc1 (stereo not drawn) [Compound 4c, 2-Amino-4-{4-[(4-chlorobenzyl)oxy]phenyl}-5-oxo-5,6,7,8-tetrahydro-4Hchromene-3-carbonitrile] | 77.7 ± 3.77% | 0.89 ± 0.24 µM | 1.07 µM and 0.72 µM | 23.6 ± 1.2% | 
3 | N#CC1=C(N)OC2=C(C(=O)CCC2)C1c1ccc(OCCN2CCCCC2)cc1 (stereo not drawn) [G] |  |  |  |  | IC50 [3]: 20.4 ± 9.3 µM; IC50 [4]: 8.1 ± 0.5 µM
4 | N#CC1=C(N)OC2=C(C(=O)CCC2)C1c1ccccc1OCc1ccc(Cl)cc1 (stereo not drawn) [Compound 4h, 2-Amino-4-{2-[(4-chlorobenzyl)oxy]phenyl}-5-oxo-5,6,7,8-tetrahydro-4H-chromene-3-carbonitrile] | 21.3 ± 2.69% |  |  | 7.35 ± 0.56% | 
5 | N#CC1=C(N)OC2=C(C(=O)CCC2)C1c1ccc([N+](=O)[O-])cc1 (stereo not drawn) [Compound 4b, 2-Amino-4-(4-nitrophenyl)-5-oxo-5,6,7,8-tetrahydro-4H-chromene-3-carbonitrile] | 58.7 ± 1.18% | 27.4 ± 2.01 µM | 28.8 µM and 26 µM | 28.9 ± 2.56% | 
6 | N#CC1=C(N)OC2=C(C(=O)CCC2)C1c1ccc(OCc2ccc(Br)cc2)cc1 (stereo not drawn) [Compound 4d, 2-Amino-4-{4-[(4-bromobenzyl)oxy]phenyl}-5-oxo-5,6,7,8-tetrahydro-4Hchromene-3-carbonitrile] | 67.8 ± 1.7% | 1.19 ± 0.31 µM | 1.41 µM and 0.97 µM | 23.4 ± 1% | 
7 | CCOc1ccc2c(c1)OC/C(=C\c1ccc(OCCN3CCCCC3)cc1)C2=O [A] |  |  |  |  | IC50 [4]: 0.854 ± 0.04 µM
8 | COc1cc(C2C(C#N)=C(N)OC3=C2C(=O)CCC3)ccc1OCc1cccc(Cl)c1 (stereo not drawn) [Compound 4m, A-amino-4-{4-[(3-chlorobenzyl)oxy]-3-methoxyphenyl}-5-oxo-5,6,7,8-tetrahydro-4H-chromene-3-carbonitrile] | 69.7 ± 1.52% | 1.51 ± 0.2 µM |  | 12.9 ± 1.27% | IC50 ([1]; read-out: IC50 (individual IC50 graphs, Table S1)): 1.65 µM and 1.36 µM
9 | COc1ccc(COc2ccccc2C2C(C#N)=C(N)OC3=C2C(=O)CCC3)cc1 (stereo not drawn) [Compound 4j, 2-Amino-4-{2-[(4-methoxybenzyl)oxy]phenyl}-5-oxo-5,6,7,8-tetrahydro-4H-chromene-3-carbonitrile] | 38.3 ± 4.36% |  |  | 16.3 ± 0.63% | 
10 | N#CC1=C(N)OC2=C(C(=O)CCC2)C1c1cccc(OCc2ccc(Br)cc2)c1 (stereo not drawn) [Compound 4g, 2-Amino-4-{3-[(4-bromobenzyl)oxy]phenyl}-5-oxo-5,6,7,8-tetrahydro-4Hchromene-3-carbonitrile] | 57.3 ± 9.75% | 13.1 ± 2.59 µM | 11.2 µM and 14.9 µM | 15 ± 2.59% | inhibitory activity against AChE (in words) [2]: nearly inactive
11 | N#CC1=C(N)OC2=C(C(=O)CCC2)C1c1cccc(OCc2ccc(Cl)cc2)c1 (stereo not drawn) [Compound 4f, 2-Amino-4-{3-[(4-chlorobenzyl)oxy]phenyl}-5-oxo-5,6,7,8-tetrahydro-4H-chromene-3-carbonitrile] | 62 ± 7.24% | 5.7 ± 0.68 µM | 6.18 µM and 5.21 µM | 4.42 ± 0.57% | inhibitory activity against AChE (in words) [2]: nearly inactive
12 | N#CC1=C(N)OC2=C(C(=O)CCC2)C1c1ccccc1 (stereo not drawn) [Compound 4a, 2-Amino-5-oxo-4-phenyl-5,6,7,8-tetrahydro-4H-chromene-3-carbonitrile] | 39.8 ± 1.39% |  |  | 21 ± 1.31% | 
13 | N#CC1=C(N)Oc2c(c(=O)oc3ccccc23)C1c1cc[n+](Cc2ccc(F)cc2)cc1 (stereo not drawn) [F] |  |  |  |  | IC50 [4]: 1.84 ± 0.12 µM
14 | N#CC1=C(N)OC2=C(C(=O)CCC2)C1c1ccc(OCCN2CCOCC2)cc1 (stereo not drawn) [Compound 4e, 2-Amino-4-[4-(2-morpholinoethoxy)phenyl]-5-oxo-5,6,7,8-tetrahydro-4Hchromene-3-carbonitrile] | 58.9 ± 0.93% | 26.3 ± 3.34 µM | 28.7 µM and 24 µM | 34.4 ± 3.1% | 
15 | N#CC1=C(N)OC2=C(C(=O)CCC2)C1c1ccccc1OCc1cccc(Cl)c1 (stereo not drawn) [Compound 4i, 2-Amino-4-{2-[(3-chlorobenzyl)oxy]phenyl}-5-oxo-5,6,7,8-tetrahydro-4H-chromene-3-carbonitrile] | 42.8 ± 1.22% |  |  | 19.4 ± 2.39% | 
16 | COc1cc(C2C(C#N)=C(N)OC3=C2C(=O)CCC3)ccc1OCc1ccc(F)cc1 (stereo not drawn) [Compound 4k, 2-Amino-4-{4-[(4-fluorobenzyl)oxy]-3-methoxyphenyl}-5-oxo-5,6,7,8-tetrahydro-4H-chromene-3-carbonitrile] | 80.5 ± 5.08% | 0.65 ± 0.13 µM |  | 41.1 ± 2.33% | type of inhibition ([5]; Lineweaver–Burk plot, Km increased, Vmax unaffected): competitive-type inhibition; also recorded: competitive inhibitor; Ki ([5]; from secondary plot of slopes vs inhibitor concentration, R^2 = 0.9876, read-out: Ki (inhibition constant)): 0.55 µM
17 | O=C(NCCCCCCCCCCNc1c2c(nc3ccccc13)CCCC2)c1cc(=O)c2cc(O)ccc2o1 [E] |  |  |  |  | BBB permeability [6]: 23.1 ± 0.1 × 10^−6 cm s^−1; IC50 [3]: 8 ± 0.2 µM; IC50 [4]: 1.5 ± 0.04 µM
18 | O=C(O)c1coc2ccc(OCc3ccccc3)cc2c1=O [B] |  |  |  |  | blood–brain barrier (BBB) permeability [6]: 5.4 ± 0.3 × 10^−6 cm s^−1; IC50 [3]: 0.37 µM; IC50 [4]: 5.24 µM
